# Measurements: the supplement of paper PMC10307832
# What was measured:
# Test in all cases: relative viability (nuclei count vs DMSO), 5 days (fraction); higher = more cells survive
# NCI-H2170 = system: NCI-H2170
# Method in brief: (§1)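 Lung cancer cell lines, seeded in 1536-well plates, were treated the following day by pin tool with a single drug or with five library-drug doses (not always all listed) in √10 steps on top of a fixed anchor-drug dose. Cells were fixed and nuclei stained in one step after 5 days, and nuclei were counted. Relative viability is the nuclei count for treated wells divided by that for vehicle wells, reported as medians of duplicate plates.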
# NCI-H1793 = system: NCI-H1793
# Method in brief: as §1
# HARA = system: HARA
# Method in brief: as §1
# SK-MES-1 = system: SK-MES-1
# Method in brief: as §1
# CAL-12T = system: CAL-12T
# Method in brief: as §1
# NCI-H1915 = system: NCI-H1915
# Method in brief: as §1
# H3255 = system: H3255
# Method in brief: as §1
# NCI-H647 = system: NCI-H647
# Method in brief: as §1
# NCI-H661 = system: NCI-H661
# Method in brief: as §1
# BEN = system: BEN
# Method in brief: as §1
# NCI-H650 = system: NCI-H650
# Method in brief: as §1
# NCI-H322M = system: NCI-H322M
# Method in brief: as §1
# LOU-NH91 = system: LOU-NH91
# Method in brief: as §1
# HCC-15 = system: HCC-15
# Method in brief: as §1
# LXF-289 = system: LXF-289
# Method in brief: as §1
# HCC-366 = system: HCC-366
# Method in brief: as §1
# LC-2-ad = system: LC-2-ad
# Method in brief: as §1
# NCI-H2347 = system: NCI-H2347
# Method in brief: as §1
# NCI-H838 = system: NCI-H838
# Method in brief: as §1
# NCI-H2085 = system: NCI-H2085
# Method in brief: as §1
# UMC-11 = system: UMC-11
# Method in brief: as §1
# NCI-H1651 = system: NCI-H1651
# Method in brief: as §1
# NCI-H1395 = system: NCI-H1395
# Method in brief: as §1
smiles,measurement,setting,value
Cc1cn(-c2cc(NC(=O)c3ccc(C)c(Nc4nccc(-c5cccnc5)n4)c3)cc(C(F)(F)F)c2)cn1 [Nilotinib] + CS(=O)(=O)CCNCc1ccc(-c2ccc3ncnc(Nc4ccc(OCc5cccc(F)c5)c(Cl)c4)c3c2)o1 [Lapatinib] (partner 2 µM),relative viability,NCI-H2170; first compound 0.001 µM,0.26
same,relative viability,NCI-H2170; first compound 0.003162 µM,0.285
same,relative viability,NCI-H2170; first compound 0.01 µM,0.272
same,relative viability,NCI-H2170; first compound 0.03162 µM,0.28
same,relative viability,NCI-H2170; first compound 0.1 µM,0.268
same,relative viability,NCI-H1793; first compound 0.003162 µM,0.842
same,relative viability,NCI-H1793; first compound 0.01 µM,1.02
same,relative viability,NCI-H1793; first compound 0.03162 µM,0.859
same,relative viability,NCI-H1793; first compound 0.1 µM,0.21
same,relative viability,HARA; first compound 0.001 µM,0.685
same,relative viability,HARA; first compound 0.003162 µM,0.777
same,relative viability,HARA; first compound 0.01 µM,0.686
same,relative viability,HARA; first compound 0.03162 µM,0.8
same,relative viability,HARA; first compound 0.1 µM,0.454
same,relative viability,SK-MES-1; first compound 0.003162 µM,0.663
same,relative viability,SK-MES-1; first compound 0.01 µM,0.665
same,relative viability,SK-MES-1; first compound 0.03162 µM,0.541
same,relative viability,SK-MES-1; first compound 0.1 µM,0.557
same,relative viability,CAL-12T; first compound 0.001 µM,0.729
same,relative viability,CAL-12T; first compound 0.01 µM,0.748
same,relative viability,CAL-12T; first compound 0.03162 µM,0.839
same,relative viability,CAL-12T; first compound 0.1 µM,0.74
same,relative viability,NCI-H1915; first compound 0.001 µM,0.986
same,relative viability,NCI-H1915; first compound 0.003162 µM,1.13
same,relative viability,NCI-H1915; first compound 0.01 µM,1.22
same,relative viability,NCI-H1915; first compound 0.03162 µM,0.98
same,relative viability,NCI-H1915; first compound 0.1 µM,0.517
same,relative viability,H3255; first compound 0.001 µM,0.259
same,relative viability,H3255; first compound 0.003162 µM,0.224
same,relative viability,H3255; first compound 0.01 µM,0.236
same,relative viability,H3255; first compound 0.03162 µM,0.24
same,relative viability,H3255; first compound 0.1 µM,0.217
same,relative viability,NCI-H647; first compound 0.001 µM,0.978
same,relative viability,NCI-H647; first compound 0.003162 µM,1.42
same,relative viability,NCI-H647; first compound 0.03162 µM,0.672
same,relative viability,NCI-H647; first compound 0.1 µM,0.723
same,relative viability,NCI-H661; first compound 0.001 µM,0.446
same,relative viability,NCI-H661; first compound 0.003162 µM,0.445
same,relative viability,NCI-H661; first compound 0.01 µM,0.549
same,relative viability,NCI-H661; first compound 0.03162 µM,0.42
same,relative viability,NCI-H661; first compound 0.1 µM,0.436
same,relative viability,BEN; first compound 0.001 µM,0.759
same,relative viability,BEN; first compound 0.003162 µM,0.74
same,relative viability,BEN; first compound 0.01 µM,0.757
same,relative viability,BEN; first compound 0.03162 µM,0.518
same,relative viability,BEN; first compound 0.1 µM,0.508
same,relative viability,NCI-H650; first compound 0.001 µM,0.897
same,relative viability,NCI-H650; first compound 0.003162 µM,0.65
same,relative viability,NCI-H650; first compound 0.01 µM,0.918
same,relative viability,NCI-H650; first compound 0.03162 µM,0.851
same,relative viability,NCI-H650; first compound 0.1 µM,0.682
same,relative viability,NCI-H322M; first compound 0.001 µM,0.557
same,relative viability,NCI-H322M; first compound 0.003162 µM,0.515
same,relative viability,NCI-H322M; first compound 0.03162 µM,0.596
same,relative viability,NCI-H322M; first compound 0.1 µM,0.649
same,relative viability,LOU-NH91; first compound 0.001 µM,0.76
same,relative viability,LOU-NH91; first compound 0.003162 µM,0.679
same,relative viability,LOU-NH91; first compound 0.01 µM,0.649
same,relative viability,LOU-NH91; first compound 0.03162 µM,0.761
same,relative viability,LOU-NH91; first compound 0.1 µM,0.747
same,relative viability,HCC-15; first compound 0.001 µM,0.835
same,relative viability,HCC-15; first compound 0.003162 µM,1.07
same,relative viability,HCC-15; first compound 0.01 µM,1.05
same,relative viability,HCC-15; first compound 0.03162 µM,0.663
same,relative viability,HCC-15; first compound 0.1 µM,0.443
same,relative viability,LXF-289; first compound 0.001 µM,0.839
same,relative viability,LXF-289; first compound 0.003162 µM,1.05
same,relative viability,LXF-289; first compound 0.01 µM,0.927
same,relative viability,LXF-289; first compound 0.03162 µM,0.941
same,relative viability,LXF-289; first compound 0.1 µM,0.63
same,relative viability,HCC-366; first compound 0.001 µM,0.907
same,relative viability,HCC-366; first compound 0.003162 µM,1.38
same,relative viability,HCC-366; first compound 0.01 µM,1.29
same,relative viability,HCC-366; first compound 0.03162 µM,0.984
same,relative viability,HCC-366; first compound 0.1 µM,0.191
same,relative viability,LC-2-ad; first compound 0.001 µM,0.901
same,relative viability,LC-2-ad; first compound 0.003162 µM,1.29
same,relative viability,LC-2-ad; first compound 0.01 µM,1.05
same,relative viability,LC-2-ad; first compound 0.03162 µM,0.894
same,relative viability,LC-2-ad; first compound 0.1 µM,0.293
same,relative viability,NCI-H2347; first compound 0.001 µM,0.821
same,relative viability,NCI-H2347; first compound 0.003162 µM,1.01
same,relative viability,NCI-H2347; first compound 0.01 µM,0.823
same,relative viability,NCI-H2347; first compound 0.03162 µM,0.817
same,relative viability,NCI-H2347; first compound 0.1 µM,0.6
same,relative viability,NCI-H838; first compound 0.001 µM,0.927
same,relative viability,NCI-H838; first compound 0.003162 µM,1.02
same,relative viability,NCI-H838; first compound 0.01 µM,0.925
same,relative viability,NCI-H838; first compound 0.03162 µM,0.817
same,relative viability,NCI-H838; first compound 0.1 µM,0.609
same,relative viability,NCI-H2085; first compound 0.001 µM,0.822
same,relative viability,NCI-H2085; first compound 0.003162 µM,0.817
same,relative viability,NCI-H2085; first compound 0.01 µM,0.748
same,relative viability,NCI-H2085; first compound 0.03162 µM,0.66
same,relative viability,NCI-H2085; first compound 0.1 µM,0.599
same,relative viability,UMC-11; first compound 0.001 µM,0.995
same,relative viability,UMC-11; first compound 0.003162 µM,1.2
same,relative viability,UMC-11; first compound 0.01 µM,1.27
same,relative viability,UMC-11; first compound 0.03162 µM,0.851
same,relative viability,UMC-11; first compound 0.1 µM,0.255
same,relative viability,NCI-H1651; first compound 0.001 µM,0.815
same,relative viability,NCI-H1651; first compound 0.003162 µM,0.803
same,relative viability,NCI-H1651; first compound 0.01 µM,1.06
same,relative viability,NCI-H1651; first compound 0.03162 µM,0.737
same,relative viability,NCI-H1651; first compound 0.1 µM,0.359
same,relative viability,NCI-H1395; first compound 0.001 µM,1.02
same,relative viability,NCI-H1395; first compound 0.003162 µM,0.575
same,relative viability,NCI-H1395; first compound 0.01 µM,0.9
same,relative viability,NCI-H1395; first compound 0.03162 µM,1.14
same,relative viability,NCI-H1395; first compound 0.1 µM,0.596
